Measurements reported in patent US8957056B2, “Migrastatin analogs in the treatment of cancer” (Sloan-Kettering Instiute for Cancer Research, priority 2004, dated 2015).
pIC50: −log10 of the molar value. Read-outs that look alike come from different tables or passages of the source.

What was measured:
[1] = system: HUVEC; experiment: Tube formation assay; assay type: cell-based, human; settings: HUVEC on matrigel, 16-18 h, tested concentrations 200, 100, 50, 25, 10 μM
Procedure: A protocol was designed based on the instructions from the provider (BD Bioscience, San Jose, Calif.). Briefly, wells of a 48 well culture dish were covert with 150 μL matrigel and the matrigel was gelatinized for 30 min at 37° C. A 80-90% confluent HUVEC (BD Bioscience, San Jose, Calif.) culture was trypsin treated, the detached cells were collected by centrifugation and resuspended in EGM-2 media (BD Bioscience, San Jose, Calif.). Cell concentration was adjusted to 100.000 cells/mL. 400 μL of the cell suspension were filled in the matrigel coated wells, and a solution of the inhibitor was added to the intended final concentration. The plates were incubated at 37° C. with 5% CO2 for 16-18 h. Media was removed, and the matrigel surface was washed twice with 500 μL PBS before cells were labeled with 250 μL 8 μM Calcein AM (Pierce, Rockford, Ill.) in PBS for 30 min at 37° C. After two additional washing steps (500 μL PBS) cells were visualized under an inverted microscope. Fluorescence was excited at 488 nm and recorded at 538 nm. The minimum effect concentration was defined as the minimal inhibitor concentration that caused a definite disturbance of the complexity of the formed tube network.

[2] = system: adherent cells (e.g. KYSE-520 cells); experiment: Wound healing (scratch) assay, preliminary (Table 2); assay type: cell-based; settings: 28 to 30 h, tested concentrations 200, 100, 50, 25, 10 μM
Procedure: The wound healing assay was performed based on the method described by Nakae et al. (Nakae et al., J. Antibiotics (2000), 53, 1130-1136). Briefly, adherent cells were grown in a suitable media to confluence (e.g. KYSE-520 cells in RPMI-1640 with 10% FBS). Cells were starved for 24 h in serum free media A scratch (ca. 0.5 mm) was applied and the cell layer was washed twice with PBS after removal of the media. Fresh, serum free media with the test compound at the desired concentration was added and the cells were incubated for 28 to 30 h at 37° C., 5% CO2. The scratch size was compared to that observed for cells exposed to 100 μM Migrastatin. Test compounds associated with a scratch size equal to or larger than that observed for cells exposed to 100 μM Migrastatin were deemed to have cell migration inhibitory activity at least equal to Migrastatin.

[3] = Chamber cell migration assay, preliminary (Table 3); assay type: cell-based; settings: 36 h, tested concentrations 200, 100, 50, 25, 10 μM
Procedure: Cells were grown in an appropriate media to 70 to 80% confluence and incubated in serum and growth factor free media for 24 h. Cells were detached by trypsin treatment, collected by centrifugation and resuspended in serum free media to a final concentration of 150,000 cells/mL. 400 μL of the cell suspension were loaded into a fibronectin coated insert for 24 well multidishes. 750 μL fully supplemented media were applied to the compartment under the insert. To both chambers the inhibitor was added at the intended concentration and the plates were incubated for 36 h at 37° C., 5% CO2. […] The resulting CyQuant assay solution was transferred to the cavities of a 96 well microtiter plate and the fluorescence signal was recorded in an appropriate reader. The CyQuant dye forms a highly fluorescent complex with DNA, thus the fluorescence signal is proportional to the number of cells that migrated through the membrane in the presence of the test compound (N^inh) A positive control (i.e., without a test compound in the growth media) was carried out according to the procedure described above, except that no test compound was added. The positive control fluorescent reading correlates with the number of cells that migrate through the membrane in the absence of inhibitor (N^+). […] The anti-migratory effect of a test compound is determined by the ratio (N^inh−N^−)/(N^+−N^−).

[4] = system: mouse breast tumor cells (4T1 cells); experiment: Boyden chamber cell migration assay, 4T1; assay type: cell-based; settings: Mus musculus, 4T1, read-out: IC50 value, chamber cell migration assay
[5] = Mouse blood plasma stability; settings: test period one hour
Procedure: The biological evaluation of the compounds (in terms of their ability to inhibit cell migration) was accomplished in a Boyden chamber cell migration assay. In this assay, mouse breast tumor cells (4T1 cells) or endothelial cells (HUVECs) are seeded on the upper chamber of a transwell insert. Growth factor-containing serum is added to the lower chamber.
In anticipation of subsequent in vivo evaluation of these compounds and others, preliminary metabolic stability studies were carried out. […] As a test of the ‘deactivation hypothesis’, the hydrolysis product of macrolactone 48 was prepared (Scheme 27) and tested for its activity against tumor cell migration.

[6] = system: six solid human tumor cell lines and four liquid cancer cell lines; experiment: Chamber cell migration, various human cancer cells (overall statements); assay type: cell-based; settings: migration inhibition
Procedure: Additional evaluation was conducted in a variety of human cancer cells and xenographs (See FIGS. 4-19). […] Unexpectedly, a very high selectivity between the various tumor cell lines was detected (Table 4 and FIG. 2). […] As stated above, non-transformed human cells such as HUVEC appear to be largely more resistant to the compounds. […] This was an unforeseen discovery, especially in light of the response observed for these compounds to the 4T1 mouse breast cancer cell line (previously reported in WO 2004/087672).
Cell migrations were assayed with 8 μm of microporous 6.5-mm transwell plates (Corning). 200 μl of 2×10^5 cells in serum-free RPMI1640 medium containing 0.5% BSA were added to the upper chamber and 600 μl of medium with 10% fetal bovine serum was added to the lower chamber. […] Cells migrated to the lower wells were collected and counted for liquid tumors, solid tumors were processed as previously described.^28 Data shown are representative of at least three experiments.

[7] = system: mouse 4T1 cell; settings: mouse 4T1 cell proliferation; previously reported (WO 2004/087672); cited from earlier work
[8] = reported by Imoto / Kosan; read-out: IC50 value, reported activity in a wound healing assay; cited from earlier work

CO[C@H]1/C=C/CC/C=C/C(=O)OC([C@H](C)C(=O)CCCC2CC(=O)NC(=O)C2)/C(C)=C\[C@@H](C)[C@@H]1O (some centres unmarked) [Migrastatin (1), Migrastatin]
Minimum effect concentration [1]: 100 µM | Minimum effect concentration [2]: 100 µM | pIC50 [3]: 3.70 | pIC50 [4]: 4.54 | metabolic stability in mouse blood plasma [5]: completely inert toward lactone opening | response of the human tumor cell lines tested [6]: did not respond well to any of the cell lines tested | pIC50 [7]: 4.38 | pIC50 [8]: 4.54
